Like-named read-outs stand apart in the source and are kept apart here.

As a reminder, the IC50 is the concentration at which inhibition is half-maximal. What is called CC50 is the concentration at which the toxic effect on the cells reaches its halfway point. In general, EC50 refers to the concentration at which the effect is half-maximal.

The test system of data set [1] is hepatitis B virus (HBV). The data set can be described thus: In vitro anti-hepatitis B virus activity (HBV DNA-replication, dot blot). It is filed as cell-based. The procedure:
HepG 2.2.15 cell was used as the hepatitis B virus (HBV) vehicle to determine the inhibition effect of the compounds on DNA-replication of HBV.
Test method: HepG 2.2.15 cells were seeded into a 96-well culture plate. Various dilutions of test samples and positive control were added, respectively, after 24 hours, in which a cell control well was set. The medium was replaced with culture containing various dilutions of test samples after 72 hours. The supernatants and HepG 2.2.15 cells were collected after 6 days of culture.

Data set [2] can be described thus: Cytotoxicity test (CellTiter-Blue). In kind it is cell-based. Conditions: human; HepG 2.2.15 cells, 6 days of culture; read-out: Toxicity CC50. How it is done:
(§1) Test method: HepG 2.2.15 cells were seeded into a 96-well culture plate and various dilutions of test samples and positive control were added, respectively. CellTiter-Blue (Promega, Catalog #G8081) was added for 6 days of culture.
On the technique in general: Resazurin is reduced to fluorescent resorufin, in cell work by metabolically active cells.

Data set [3] concerns HepG 2.2.15 cells. As to the kind of experiment: Cytotoxicity test (CellTiter-Blue). It is filed as cell-based. How it is done: as §1
Data set [4] can be described thus: Metabolic stability in fresh human whole blood and distribution test in PBMCs. In kind it is in vitro ADME. The procedure:
Different tenofovir prodrugs were incubated together with fresh human whole blood at 37° C. Plasma and PBMCs were separated, respectively, from the whole blood (Ficoll density gradient centrifugation method) after 1 hour and 2 hours incubation to determine the concentrations of prototype drug and metabolite-tenofovir in plasma and PBMCs. The PBMCs were counted via cell counter and each PBMC was treated as 200 fL to calculate intracellular drug concentration.
20 μL of internal standard solution (400 ng/mL SN-38 solution), […], methanol-water (50:50, v/v), and 200 μL acetonitrile were added to 100 μL plasma sample or PBMC sample, respectively. The mixture was mixed by vortex for 1 min and centrifuged for 5 min (14000 rpm). 20 μL supernatant and 180 μl mobile phase were mixed by vortex for 1 min, and 10 μL of the above mixture was injected into LC/MS/MS for analysis.

For data set [5] the following is noted: background statement; cited from earlier work.
Data set [6] can be described thus: Cytotoxicity in cells free of virus (anti-HIV test). It is filed as cell-based. Particulars: human. The procedure:
3) Cells for the cytotoxic detection were incubated in a 384-well plate for 3 days.
6) Luminescent signal of the cells free of virus was detected to evaluate cytotoxicity after incubation for 3 days.
(§2) 7) The antiviral activity and cytotoxicity were calculated according to the following equation: Antiviral activity (%)=100−(Detection value−Maximum value)/(Minimum value−Maximum value)*100 Cytotoxicity (%)=100−(Detection value−Maximum value)/(Minimum value−Maximum value)*100 8) EC50 and CC50 were calculated with Fit Curve of Graphpad Prism 5 (the results are shown in Table 4).

Data set [7] has as its system HIV-1 (IIIb). The data set can be described thus: microbe, parasite or virus in culture. It is filed as cell-based. The procedure: 1) MT-2 cells were infected with HIV-1 (IIIb) to form multiplicity of infection (MOI) 0.01 TCID50 per cell.
2) The mixture of virus and cells was incubated in a 384-well plate for 3 days.
4) The supernatant was transferred to a new plate and incubated with reporter cells (HeLa) for 24 hours.
5) Detecting beta-GAL activity to evaluate anti-HIV activity.
as §2

A short description of data set [8]: Stability test in simulated gastric juice (pepsin, pH 2.0). It is filed as physicochemical. The procedure:
10 ml of the stock solution and 500.0 mg of pepsin were transferred into a 50 mL volumetric flask and diluted with water to 50 ml, which was then subjected to ultrasound to dissolve the pepsin (the solution was not clear now) and then filtered to give a clear solution as simulated gastric juice.
5.0 mg of GS-7340 were transferred into a 5 mL volumetric flask and mixed with 2.5 mL of isopropyl alcohol to dissolve GS-7340, and then the simulated gastric juice was added to 5 mL. The solution was shaken well and filtered for using.
5.0 mg of compound Ia1 were transferred into a 5 mL volumetric flask and mixed with 2.5 mL of isopropyl alcohol to dissolve compound Ia1, and then the simulated gastric juice was added to 5 mL. The solution was shaken well and filtered for using.
(§3) The prepared sample was filled into the chromatography vial as the initial sample and immediately injected. Meanwhile, the rest of the samples were put into a 37° C. incubator, and were injected into the HPLC system after 6 hours.

A short description of data set [9]: Stability test in acidic medium (hydrochloric acid solution pH 2.0). In kind it is physicochemical. Particulars: Acid medium (pH = 2). How it is done:
4.5 mL of 36% hydrochloric acid was transferred into a 1 L volumetric flask and diluted with water to 1 L to prepare a stock solution. Then 10 mL of the above solution was transferred into a 50 mL volumetric flask and diluted with water to 50 mL to prepare the hydrochloric acid solution with pH 2.0.
5.0 mg of GS-7340 were transferred into a 5 mL volumetric flask and mixed with 2.5 mL of isopropyl alcohol to dissolve GS-7340, and then the hydrochloric acid solution (pH 2.0) was added to 5 mL. The solution was shaken well and filtered for using.
5.0 mg of compound Ia1 were transferred into a 5 mL volumetric flask and mixed with 2.5 mL of isopropyl alcohol to dissolve compound Ia1, and then the hydrochloric acid solution (pH 2.0) was added to 5 mL. The solution was shaken well and filtered for using.
as §3

[10] abbreviates: Hepatitis B virus, HepG2.2.15, 144 h.

Regarding `CC(C)OC(=O)C(C)(C)N[P@](=O)(CO[C@H](C)Cn1cnc2c(N)ncnc21)Oc1cccc2ccccc12` [If1], in data set [1] (HepG 2.2.15 cells), the “inhibitory effect on HBV-DNA replication (in words)” value (from here on “inhibitory effect … (in words)”) is recorded as “significant inhibitory effect” and the “inhibitory effect on HBV-DNA replication compared with positive control GS7340” value is “better than that of the positive control GS7340”. Moreover, the IC50 in data set [1] (setting [10]) was 0.0075 µM. Also, in [2], the CC50 at 6 days was more than 10 µM. In [3], the “cytotoxicity (in words)” value is listed as “without cytotoxicity”.

Turning to `CC(C)OC(=O)C(C)(C)N[P@](=O)(CO[C@H](C)Cn1cnc2c(N)ncnc21)Oc1ccc(Cl)cc1` [Ic1], in data set [1] (HepG 2.2.15 cells), the “inhibitory effect … (in words)” value is given as “significant inhibitory effect” and the “inhibitory effect on HBV-DNA replication compared with positive control GS7340” value is given as “better than that of the positive control GS7340”. Moreover, the IC50 in data set [1] (setting [10]) stood at 0.0053 µM. In addition, the half-maximal cytotoxic concentration (CC50) at 6 days in data set [2] was more than 10 µM. Moreover, the “cytotoxicity (in words)” value in data set [3] is on record as “without cytotoxicity”.

For the compound `CC(C)OC(=O)C(C)(C)N[P@](=O)(CO[C@H](C)Cn1cnc2c(N)ncnc21)Oc1ccc(C(F)(F)F)cc1` [Ij1], in [1] (HepG 2.2.15 cells), the “inhibitory effect … (in words)” value is recorded as “significant inhibitory effect” and the “inhibitory effect on HBV-DNA replication compared with positive control GS7340” value is listed as “better than that of the positive control GS7340”. Moreover, half-maximal inhibition in [1] (setting [10]) (IC50) required 0.007 µM. Also, in data set [2], the CC50 at 6 days is more than 10 µM. Also, in [3], the “cytotoxicity (in words)” value is listed as “without cytotoxicity”.

On to `CC(C)OC(=O)C(C)(C)N[P@](=O)(CO[C@H](C)Cn1cnc2c(N)ncnc21)Oc1ccc(F)cc1` [Ii1], for which the “inhibitory effect on HBV-DNA replication compared with positive control GS7340” value in data set [1] (HepG 2.2.15 cells) was “better than that of the positive control GS7340”. The compound also returned an IC50 in [1] (setting [10]) of 0.0083 µM. Also, the CC50 at 6 days in data set [2] is more than 10 µM.

On to `CC(C)OC(=O)C1(N[P@](=O)(CO[C@H](C)Cn2cnc3c(N)ncnc32)Oc2ccccc2)CC1` [Ib1], for which the “inhibitory effect … (in words)” value in data set [1] (HepG 2.2.15 cells) is recorded as “significant inhibitory effect”. Besides, the IC50 in data set [1] (setting [10]) is 0.015 µM. In addition, the CC50 at 6 days in data set [2] is more than 10 µM. Moreover, in data set [3], the “cytotoxicity (in words)” value was “without cytotoxicity”.

Regarding `CC(C)OC(=O)[C@H](C)N[P@](=O)(CO[C@H](C)Cn1cnc2c(N)ncnc21)Oc1ccccc1` [GS-7171, reference compound], the IC50 in data set [1] (HepG 2.2.15 cells, 6 days of culture, HBV DNA-replication by dot blot, read-out: IC50) was 0.035 µM. Besides, the CC50 in [3] (6 days of culture, read-out: Toxicity CC50) was more than 10 µM.

Turning to `CC(C)OC(=O)[C@H](C)N[P@](=O)(CO[C@H](C)Cn1cnc2c(N)ncnc21)Oc1ccccc1` [GS-7340, reference compound], the Prototype concentration in data set [4] (0 hour, initial concentration, fresh human whole blood) is 16.9 µM; in [4] (1 hour incubation at 37° C., in PBMCs), 2448 µM; in [4] (1 hour incubation at 37° C., in plasma) it was 14.5 µM; in data set [4] (2 hour incubation at 37° C., in PBMCs), 2357 µM; in [4] (2 hour incubation at 37° C., in plasma), 13.0 µM. Moreover, in [4] (1 hour to 2 hours), the “change of active metabolite-tenofovir concentration in PBMCs over the incubation time (in words)” value was “almost the same”. Also, the “change of active metabolite-tenofovir released in plasma over the incubation time (in words)” value in data set [4] (1 hour to 2 hours) is “increased significantly”. Also, the “active metabolite-tenofovir detected in plasma (in words)” value in data set [4] (after incubation with fresh human whole blood) is “certain active metabolite-tenofovir was detected”. The “metabolite-tenofovir detected in plasma” value in data set [5] is recorded as 1-2%. In addition, the “total concentration of the active ingredient in PBMCs relative to tenofovir” value in data set [5] is given as 30 times. Moreover, the “total concentration of the active ingredient in PBMCs relative to tenofovir disoproxil” value in data set [5] is given as 10 times. In data set [6] (cells free of virus, 3 days, luminescent signal, read-out: Toxicity CC50), the CC50 at 3 days is more than 150 µM. Besides, the EC50 in data set [7] (Human immunodeficiency virus 1, IIIB, MT2, 72 h) was 0.012 µM. Half-maximal inhibition in [1] (setting [10]) (IC50) required 0.014 µM. The Change value in [8] (37° C., 6 hours) is reported as 4.3%; in data set [9] (37° C., 6 hours) it was 3.2%. Besides, the “Purity after 6 hours” value in data set [8] (37° C., 6 hours) is reported as 94.4%; in data set [9] (37° C., 6 hours) it was 95.5%. For the same compound, the Initial purity in data set [8] (initial sample) and in data set [9] (initial sample) was 98.7% throughout. The CC50 at 6 days in data set [2] is more than 10 µM.

Regarding `COc1ccc(O[P@@](=O)(CO[C@H](C)Cn2cnc3c(N)ncnc32)NC(C)(C)C(=O)OC(C)C)cc1` [Id1], in data set [1] (HepG 2.2.15 cells), the “inhibitory effect … (in words)” value was “significant inhibitory effect” and the “inhibitory effect on HBV-DNA replication compared with positive control GS7340” value is on record as “better than that of the positive control GS7340”. Also, in data set [1] (setting [10]), the midpoint of inhibition, the IC50, lay at 0.0062 µM. Further, in [2], the CC50 at 6 days is more than 10 µM. In data set [3], the “cytotoxicity (in words)” value is “without cytotoxicity”.

`CC(C)OC(=O)C(C)(C)N[P@@](=O)(CO[C@H](C)Cn1cnc2c(N)ncnc21)Oc1ccccc1` [Ia2] displayed an IC50 in data set [1] (setting [10]) of 0.032 µM. Further, the CC50 at 6 days in [2] was more than 10 µM.

The compound `CC(C)OC(=O)C(C)(C)NP(=O)(CO[C@H](C)Cn1cnc2c(N)ncnc21)Oc1ccccc1` (stereo partly shown) [Ia] displayed an IC50 in data set [1] (setting [10]) of 0.021 µM. In data set [2], the CC50 at 6 days is more than 10 µM.

Compound `CC(C)OC(=O)OCOP(=O)(CO[C@H](C)Cn1cnc2c(N)ncnc21)OCOC(=O)OC(C)C` [Tenofovir Disoproxil, reference compound] came in with a CC50 at 3 days in [6] of 16.9 µM. For the same compound, in data set [7] (Human immunodeficiency virus 1, MT2, 72 h, MT-2 cells infected with HIV-1 (IIIb), 3 days, read-out: EC50), the EC50 worked out at 0.011 µM.

As to `Cc1cccc(C)c1O[P@@](=O)(CO[C@H](C)Cn1cnc2c(N)ncnc21)NC(C)(C)C(=O)OC(C)C` [Ih1], in [1] (HepG 2.2.15 cells), the “inhibitory effect … (in words)” value is given as “significant inhibitory effect” and the “inhibitory effect on HBV-DNA replication compared with positive control GS7340” value is reported as “better than that of the positive control GS7340”. This compound also came in with a half-maximal inhibitory concentration (IC50) in [1] (setting [10]) of 0.0059 µM. The CC50 at 6 days in data set [2] is more than 10 µM. In [3], the “cytotoxicity (in words)” value was “without cytotoxicity”.

Source of the values: US9908908B2, “Tenofovir prodrug and pharmaceutical uses thereof” (Jiangsu Hansoh Pharmaceutical Co., Ltd., priority 2012, dated 2018).
